In patent US9980943B2, “Methods of treating muscular dystrophy” (BOARD OF REGENTS OF THE NEVADA SYSTEM OF HIGHER EDUCATION, …, priority 2013, dated 2018):

How the values were obtained:
Format in all cases: cell-based, mouse
[1] = system: α7 integrin (LacZ reporter in α7βgal+/− myoblasts); experiment: Myoblast α7+/LacZ integrin FDG assay (Burkin assay in myoblasts, 96-well); conditions: α7+/LacZ myoblasts, 96-well
[2] = system: β-galactosidase in CMV-LacZ C2C12 myoblasts; experiment: CMV-LacZ secondary screen in C2C12 myoblasts (β-Gal stabilizing assay); conditions: CMV-LacZ C2C12 myoblasts
Method in brief: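 First, C2C12 myoblasts were transfected with a linearized CMV-LACZ vector and clonal lines selected by FDG β-gal assay. Then cells were exposed to compounds at 0.5, 1, 5, 10, 20 and 40 μM in 96-well format, two replicates each, and β-gal measured.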

[3] = system: β-galactosidase in CMV-LacZ C2C12 myotubes; experiment: CMV-LacZ secondary screen in C2C12 myotubes (β-Gal stabilizing assay); conditions: C2C12 CMV-LacZ myotubes, fold relative to DMSO
Method in brief: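 CMV-LacZ C2C12 line (clonal, FDG-screened); myoblasts/myotubes dosed 0.5–40 μM (0.5, 1, 5, 10, 20, 40 μM); n=2 per point; β-gal stabilization read-out.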

[4] = system: α7 integrin (LacZ reporter in α7+/LacZ myotubes); experiment: Myotube α7 integrin FDG assay (Burkin assay in myotubes, 96-well); conditions: myotubes

| Structure (SMILES) | Burkin Assay in Myoblasts, signal relative to DMSO ([1]; 0.5 uM) | Burkin Assay in Myoblasts, signal relative to DMSO ([1]; 1 uM) | Burkin Assay in Myoblasts, signal relative to DMSO ([1]; 5 uM) | Burkin Assay in Myoblasts, signal relative to DMSO ([1]; 10 uM) | Burkin Assay in Myoblasts, signal relative to DMSO ([1]; 20 uM) | Burkin Assay in Myoblasts, signal relative to DMSO ([1]; 40 uM) | CMV-LACZ in Myoblasts (β-galactosidase activity relative to DMSO) ([2]; 0.5 uM) | CMV-LACZ in Myoblasts (β-galactosidase activity relative to DMSO) ([2]; 1 uM) | CMV-LACZ in Myoblasts (β-galactosidase activity relative to DMSO) ([2]; 5 uM) | CMV-LACZ in Myoblasts (β-galactosidase activity relative to DMSO) ([2]; 10 uM) | CMV-LACZ in Myoblasts (β-galactosidase activity relative to DMSO) ([2]; 20 uM) | CMV-LACZ in Myoblasts (β-galactosidase activity relative to DMSO) ([2]; 40 uM) | CMV-LACZ in Myotubes, signal relative to DMSO ([3]; 0.5 uM) | CMV-LACZ in Myotubes, signal relative to DMSO ([3]; 1 uM) | CMV-LACZ in Myotubes, signal relative to DMSO ([3]; 5 uM) | CMV-LACZ in Myotubes, signal relative to DMSO ([3]; 10 uM) | CMV-LACZ in Myotubes, signal relative to DMSO ([3]; 20 uM) | CMV-LACZ in Myotubes, signal relative to DMSO ([3]; 40 uM) | Burkin Assay in Myotubes, α7 integrin LacZ reporter signal relative to DMSO ([4]; 0.5 uM) | Burkin Assay in Myotubes, α7 integrin LacZ reporter signal relative to DMSO ([4]; 1 uM) | also measured |
| --- | --- | --- | --- | --- | --- | --- | --- | --- | --- | --- | --- | --- | --- | --- | --- | --- | --- | --- | --- | --- | --- |
| CCCCN(CC)Cc1ccc(CNC(=S)Nc2ccccc2F)o1 [MLS000689562-01] | 1.074 | 1.014 | 1.013 | 1.224 | 0.9537 | 0.8817 | 0.8453 | 0.7409 | 0.8060 | 1.0858 | 0.9919 | 1.0619 | 0.9474 | 0.8652 | 1.0300 | 0.8105 | 0.9824 | 0.9788 | 1.081 | 1.035 | Burkin Assay in Myotubes, α7 integrin LacZ reporter signal relative to DMSO ([4]; 5 uM): 0.9788; Burkin Assay in Myotubes, α7 integrin LacZ reporter signal relative to DMSO ([4]; 10 uM): 1.0159; Burkin Assay in Myotubes, α7 integrin LacZ reporter signal relative to DMSO ([4]; 20 uM): 0.7236; Burkin Assay in Myotubes, α7 integrin LacZ reporter signal relative to DMSO ([4]; 40 uM): 0.8547 |
| COc1cc(/C=C/CN2CCN(Cc3ccc(C)o3)C(CCO)C2)ccc1O (stereo not drawn) [MLS000693704-01] | 1.428 | 1.153 | 1.1427 | 0.9418 | 0.8473 | 0.8019 | 0.8989 | 1.1157 | 0.9522 | 0.9977 | 0.7996 | 1.0567 | 0.8571 | 0.8695 | 1.1170 | 1.0812 | 1.1647 | 1.0600 | 0.9315 | 1.0787 | Burkin Assay in Myotubes, α7 integrin LacZ reporter signal relative to DMSO ([4]; 5 uM): 1.003; Burkin Assay in Myotubes, α7 integrin LacZ reporter signal relative to DMSO ([4]; 10 uM): 0.923; Burkin Assay in Myotubes, α7 integrin LacZ reporter signal relative to DMSO ([4]; 20 uM): 0.9587; Burkin Assay in Myotubes, α7 integrin LacZ reporter signal relative to DMSO ([4]; 40 uM): 0.8263 |
| CCOc1cc(C)c(S(=O)(=O)N2CCCCC2)cc1C [MLS000693795-01] | 1.1137 | 1.242 | 1.02 | 0.9728 | 1.187 | 1.24 | 0.9100 | 1.1104 | 0.9554 | 0.9207 | 0.8526 | 0.8730 | 0.9771 | 1.0314 | 1.1780 | 1.0774 | 1.0453 | 1.0716 | 0.8397 | 0.9171 | Burkin Assay in Myotubes, α7 integrin LacZ reporter signal relative to DMSO ([4]; 5 uM): 0.9381; Burkin Assay in Myotubes, α7 integrin LacZ reporter signal relative to DMSO ([4]; 10 uM): 0.9384; Burkin Assay in Myotubes, α7 integrin LacZ reporter signal relative to DMSO ([4]; 20 uM): 1.002; Burkin Assay in Myotubes, α7 integrin LacZ reporter signal relative to DMSO ([4]; 40 uM): 0.9513 |
